Measurements reported in patent US20250257061A1, “COMPOSITIONS AND METHODS FOR TREATING CANCER AND REDUCING WNT MEDIATED EFFECTS” (StemSynergy Therapeutics, Inc., priority 2024, published 2025).
pIC50: −log10 of the molar value. Where two headings read alike, the source gives them in different places.

Tests used:
[1] = test system: Wnt-dependent HCT116 cell line; assay: Viability assay using Wnt-dependent HCT116 cell line (Cell Titer Glo); format: cell-based
Method in brief: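 HCT116 cells at 2,500 cells/well were treated on day 2 with DMSO-diluted compounds further diluted 500-fold in medium, giving a final 0.1% DMSO. Viability was read on day 5 by Cell Titer Glo luminescence.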

[2] = test system: Wnt reporter (TCF/LEF1 promoter); assay: HEK STF293 Wnt reporter (TOPFlash) luciferase assay, Steady Glo normalised to Cell Titer; format: cell-based, human
Method in brief: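 HEK STF293 cells carrying a TCF/LEF1-driven firefly luciferase were stimulated with Wnt3a-conditioned media (1:1) and compound at final 100 μM to 1 nM. Next day, lysates were read by Steady Glo luminescence. EC50 was derived from Steady Glo divided by Cell Titer to normalize for cell number.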

[3] = Homo sapiens, HCT-116, Examples for Formulae (IV), (V), (VI), and (VII), HCT116 cells, read-out: Viability IC50 category
[4] = Homo sapiens, STF/293, Examples for Formulae (IV), (V), (VI), and (VII), HEK STF293 cells, Wnt3a-conditioned media, read-out: TOPFlash IC50 category
[5] = Examples for Formulae (IV), (V), (VI), and (VII), HCT116 cells, read-out: Viability IC50 category
[6] = Examples for Formulae (IV), (V), (VI), and (VII), HEK STF293 cells, Wnt3a-conditioned media, read-out: TOPFlash IC50 category

| pIC50 [1, 3] | pIC50 [1, 5] | SMILES | pIC50 [2, 4] | pIC50 [2, 6] | also measured |
| --- | --- | --- | --- | --- | --- |
| 6.30 to 6.70 | – | Cc1nc(-c2ccc(-c3nnc[nH]3)cc2)c(C(=O)Nc2nc(-c3ccccn3)cs2)o1 [Example 67] | 6.30 to 6.70 | – | – |
| – | > 6.70 | C#Cc1ccc(-c2nc(C)oc2C(=O)Nc2nc(-c3ccccn3)cs2)cc1 [Example 68] | – | > 6.70 | – |
| 6.30 to 6.70 | – | COCc1nc(-c2ccc(F)cc2)c(C(=O)Nc2nc(-c3ccccn3)cs2)o1 [Example 69] | 6.30 to 6.70 | – | – |
| – | – | O=C(Nc1nc(-c2ccccn2)cs1)c1oc(CO)nc1-c1ccc(F)cc1 [Example 70, 4-(4-fluorophenyl)-2-(hydroxymethyl)-N-(4-(pyridin-2-yl)thiazol-2-yl)oxazole-5-carboxamide] | – | – | pIC50 ([1]; Homo sapiens, HCT-116, read-out: Viability IC50 category): 6.30 to 6.70; pIC50 ([2]; Homo sapiens, STF/293, read-out: TOPFlash IC50 category): 6.00 to 6.30 |
| 6.30 to 6.70 | – | CN1CCN(Cc2nc(-c3ccc(F)cc3)c(C(=O)Nc3nc(-c4ccccn4)cs3)o2)CC1 [Example 71] | 6.30 to 6.70 | – | – |
| 6.30 to 6.70 | – | O=C(Nc1nc(-c2ccccn2)cs1)c1oc(CN2CCOCC2)nc1-c1ccc(F)cc1 [Example 72] | 6.30 to 6.70 | – | – |
| – | > 6.70 | CN(c1nc(-c2ccc(Cl)cc2)c(C(=O)Nc2nc(-c3ccccn3)cs2)o1)S(=O)(=O)c1ccc(C(F)(F)F)cc1 [Example 73] | – | > 6.70 | – |
| – | > 6.70 | CN(c1nc(-c2ccc(S(C)(=O)=O)cc2)c(C(=O)Nc2nc(-c3ccccn3)cs2)o1)S(=O)(=O)c1ccc(F)cc1 [Example 74] | – | > 6.70 | – |
| – | > 6.70 | CN(c1nc(-c2ccc(S(C)(=O)=O)cc2)c(C(=O)Nc2nc(-c3ccccn3)cs2)o1)S(=O)(=O)c1ccc(C(F)(F)F)cc1 [Example 75] | – | 6.30 to 6.70 | – |
| > 6.70 | – | CN(C(=O)c1ccc(F)cc1)c1nc(-c2ccc(F)cc2)c(C(=O)Nc2nc(-c3ccccn3)cs2)o1 [Example 76] | > 6.70 | – | – |
| – | 6.00 to 6.30 | Cc1nc(N(C)C(=O)c2ccccc2Cl)oc1C(=O)Nc1nc(-c2ccccn2)cs1 [Example 77] | – | 6.30 to 6.70 | – |
| 5.00 to 6.00 | – | CN(C(=O)c1ccccc1Cl)c1nc(C(F)(F)F)c(C(=O)Nc2nc(-c3ccccn3)cs2)o1 [Example 78] | 6.00 to 6.30 | – | – |
